Test results taken from US20230257396A1, “MACROCYCLES AND THEIR USE” (BLOSSOMHILL THERAPEUTICS, INC., priority 2020, published 2023).

What was measured:
Test in all cases: KINOMEscan kinase binding assay (Eurofins/DiscoveRx), % Ctrl
kinases [1] = target: T1, kinases (Homo sapiens, UniProt P17948)
T1 construct: purchased Eurofins/DiscoveRx; host or cells: E. coli BL21-derived host (T7 phage display) for most kinases; HEK-293 for the rest
How it was run: (§1)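 Read-out is qPCR of kinase eluted from ligand-coated streptavidin beads after 1 h room-temperature competition with test compound. Values are % Ctrl at the tested concentration, lower meaning tighter binding.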

kinases [2] = target: T2, kinases (Homo sapiens, UniProt P36888, N841I)
T2 construct: purchased Eurofins/DiscoveRx; host or cells: E. coli BL21-derived host (T7 phage display) for most kinases; HEK-293 for the rest
T2 sequence (P36888 27-993 N841I): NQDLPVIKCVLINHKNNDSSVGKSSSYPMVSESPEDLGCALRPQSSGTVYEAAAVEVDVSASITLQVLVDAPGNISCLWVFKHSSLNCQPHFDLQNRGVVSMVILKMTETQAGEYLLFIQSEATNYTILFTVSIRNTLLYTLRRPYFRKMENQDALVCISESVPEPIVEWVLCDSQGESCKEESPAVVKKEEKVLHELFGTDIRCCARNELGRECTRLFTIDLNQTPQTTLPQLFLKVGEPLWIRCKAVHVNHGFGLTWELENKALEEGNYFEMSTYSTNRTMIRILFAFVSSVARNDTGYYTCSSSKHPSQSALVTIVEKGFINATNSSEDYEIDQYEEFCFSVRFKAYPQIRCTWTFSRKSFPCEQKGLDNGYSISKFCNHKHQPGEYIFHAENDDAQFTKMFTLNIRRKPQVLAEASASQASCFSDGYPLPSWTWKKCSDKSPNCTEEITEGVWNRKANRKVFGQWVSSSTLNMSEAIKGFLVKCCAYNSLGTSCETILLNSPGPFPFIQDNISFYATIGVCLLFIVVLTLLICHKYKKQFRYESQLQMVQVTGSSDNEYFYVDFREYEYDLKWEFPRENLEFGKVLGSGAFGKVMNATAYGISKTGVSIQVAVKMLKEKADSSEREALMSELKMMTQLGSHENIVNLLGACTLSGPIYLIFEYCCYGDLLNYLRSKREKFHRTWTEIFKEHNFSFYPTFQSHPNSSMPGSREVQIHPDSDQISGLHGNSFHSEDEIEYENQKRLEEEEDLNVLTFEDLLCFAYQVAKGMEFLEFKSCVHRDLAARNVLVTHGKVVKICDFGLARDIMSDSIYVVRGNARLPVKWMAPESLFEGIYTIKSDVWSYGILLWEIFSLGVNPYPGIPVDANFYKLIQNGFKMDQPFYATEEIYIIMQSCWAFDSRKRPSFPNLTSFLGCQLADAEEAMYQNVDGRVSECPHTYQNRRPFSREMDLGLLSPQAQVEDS
How it was run: as §1

kinases [3] = target: T3, kinases (Homo sapiens, UniProt P00519, T315I)
T3 construct: purchased Eurofins/DiscoveRx; host or cells: E. coli BL21-derived host (T7 phage display) for most kinases; HEK-293 for the rest
How it was run: as §1

kinases [4] = target: T4, kinases (Homo sapiens, UniProt P00519, Y253F)
T4 construct: purchased Eurofins/DiscoveRx; host or cells: E. coli BL21-derived host (T7 phage display) for most kinases; HEK-293 for the rest
How it was run: as §1

kinases [5] = target: T5, kinases (Homo sapiens, UniProt P00519, E255K)
T5 construct: purchased Eurofins/DiscoveRx; host or cells: E. coli BL21-derived host (T7 phage display) for most kinases; HEK-293 for the rest
How it was run: as §1

kinases [6] = target: T6, kinases (Homo sapiens, UniProt P10721, A829P)
T6 construct: purchased Eurofins/DiscoveRx; host or cells: E. coli BL21-derived host (T7 phage display) for most kinases; HEK-293 for the rest
T6 sequence (P10721 26-976 A829P): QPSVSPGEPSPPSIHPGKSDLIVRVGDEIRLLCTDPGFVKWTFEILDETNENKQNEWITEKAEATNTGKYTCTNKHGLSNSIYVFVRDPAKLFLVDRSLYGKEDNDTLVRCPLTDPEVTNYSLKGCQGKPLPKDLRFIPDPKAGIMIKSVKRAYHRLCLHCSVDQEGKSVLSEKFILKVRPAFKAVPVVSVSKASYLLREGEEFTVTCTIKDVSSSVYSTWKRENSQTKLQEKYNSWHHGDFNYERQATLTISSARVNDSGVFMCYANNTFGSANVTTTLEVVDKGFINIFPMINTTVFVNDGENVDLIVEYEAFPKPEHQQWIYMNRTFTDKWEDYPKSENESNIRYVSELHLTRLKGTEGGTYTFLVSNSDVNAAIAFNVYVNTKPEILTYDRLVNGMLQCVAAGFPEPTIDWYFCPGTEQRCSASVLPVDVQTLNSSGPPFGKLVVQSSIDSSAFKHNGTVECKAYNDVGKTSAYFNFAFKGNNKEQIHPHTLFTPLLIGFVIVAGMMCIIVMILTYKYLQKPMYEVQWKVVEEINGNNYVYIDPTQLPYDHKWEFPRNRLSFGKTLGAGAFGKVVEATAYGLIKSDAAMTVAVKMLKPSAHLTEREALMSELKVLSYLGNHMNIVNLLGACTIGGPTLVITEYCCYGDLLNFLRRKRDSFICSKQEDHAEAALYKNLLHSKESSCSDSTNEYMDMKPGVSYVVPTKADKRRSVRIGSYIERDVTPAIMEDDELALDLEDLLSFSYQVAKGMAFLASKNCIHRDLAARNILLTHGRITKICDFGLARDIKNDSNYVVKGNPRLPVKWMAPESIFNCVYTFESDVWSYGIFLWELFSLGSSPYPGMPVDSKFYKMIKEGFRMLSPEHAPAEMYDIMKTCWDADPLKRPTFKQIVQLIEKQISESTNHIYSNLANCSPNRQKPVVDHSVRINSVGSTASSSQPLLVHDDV
How it was run: as §1

kinases [7] = target: T7, kinases (Homo sapiens, UniProt P00533, G719S)
T7 construct: purchased Eurofins/DiscoveRx; host or cells: E. coli BL21-derived host (T7 phage display) for most kinases; HEK-293 for the rest
How it was run: as §1

[8] = target ABL1(T315I)-nonphosphorylated; 1 μM
[9] = target ABL1(T315I)-phosphorylated; 1 μM
[10] = target ABL1(Y253F)-phosphorylated; 1 μM
[11] = target ABL1(E255K)-phosphorylated; 1 μM
[12] = 1 μM; ABL1(T315I)-nonphosphorylated
[13] = 1 μM; ABL1(T315I)-phosphorylated
[14] = 1 μM; ABL1(Y253F)-phosphorylated
[15] = 1 μM; ABL1(E255K)-phosphorylated

T1 sequence (P17948 27-1338): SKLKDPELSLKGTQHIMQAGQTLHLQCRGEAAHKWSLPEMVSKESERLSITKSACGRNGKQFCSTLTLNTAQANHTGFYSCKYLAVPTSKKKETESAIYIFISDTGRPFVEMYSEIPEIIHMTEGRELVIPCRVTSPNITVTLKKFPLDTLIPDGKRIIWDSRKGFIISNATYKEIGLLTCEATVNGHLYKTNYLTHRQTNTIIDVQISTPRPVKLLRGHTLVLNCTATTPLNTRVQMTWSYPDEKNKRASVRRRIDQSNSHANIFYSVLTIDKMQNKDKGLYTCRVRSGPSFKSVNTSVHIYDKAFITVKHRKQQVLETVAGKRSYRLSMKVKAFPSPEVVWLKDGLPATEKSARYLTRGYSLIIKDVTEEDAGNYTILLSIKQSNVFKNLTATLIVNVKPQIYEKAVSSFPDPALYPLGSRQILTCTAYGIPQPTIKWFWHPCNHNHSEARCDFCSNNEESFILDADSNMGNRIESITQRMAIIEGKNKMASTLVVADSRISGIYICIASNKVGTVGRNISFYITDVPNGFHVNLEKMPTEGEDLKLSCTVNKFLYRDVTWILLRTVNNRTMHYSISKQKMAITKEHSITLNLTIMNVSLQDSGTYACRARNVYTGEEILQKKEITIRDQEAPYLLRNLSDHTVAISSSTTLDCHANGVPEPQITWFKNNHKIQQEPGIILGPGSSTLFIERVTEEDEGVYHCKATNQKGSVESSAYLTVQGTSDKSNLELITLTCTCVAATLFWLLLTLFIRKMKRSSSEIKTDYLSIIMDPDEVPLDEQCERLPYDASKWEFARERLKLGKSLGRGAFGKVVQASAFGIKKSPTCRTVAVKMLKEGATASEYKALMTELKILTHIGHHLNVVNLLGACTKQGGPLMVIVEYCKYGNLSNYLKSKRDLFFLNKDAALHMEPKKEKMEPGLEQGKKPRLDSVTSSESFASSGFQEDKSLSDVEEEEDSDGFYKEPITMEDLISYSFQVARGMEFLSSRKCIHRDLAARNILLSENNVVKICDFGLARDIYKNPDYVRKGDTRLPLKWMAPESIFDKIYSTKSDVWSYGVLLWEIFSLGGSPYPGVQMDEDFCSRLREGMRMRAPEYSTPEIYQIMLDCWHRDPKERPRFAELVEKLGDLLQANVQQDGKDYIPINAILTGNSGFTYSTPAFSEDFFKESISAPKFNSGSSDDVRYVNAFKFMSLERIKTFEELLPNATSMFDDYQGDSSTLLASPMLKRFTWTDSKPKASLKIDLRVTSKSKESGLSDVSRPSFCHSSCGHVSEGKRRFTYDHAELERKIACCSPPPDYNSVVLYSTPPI

| SMILES | % Ctrl, FLT1 (kinases [1]; target FLT1; 1 μM) [% Ctrl] | % Ctrl, FLT3(N841I) (kinases [2]; target FLT3(N841I); 1 μM) [% Ctrl] | % Ctrl, ABL1(T315I)-nonphosphorylated (kinases [3]; [8]) [% Ctrl] | % Ctrl, ABL1(T315I)-phosphorylated (kinases [3]; [9]) [% Ctrl] | % Ctrl, ABL1(Y253F)-phosphorylated (kinases [4]; [10]) [% Ctrl] | % Ctrl, ABL1(E255K)-phosphorylated (kinases [5]; [11]) [% Ctrl] | % Ctrl, KIT(A829P) (kinases [6]; target KIT(A829P); 1 μM) [% Ctrl] | % Ctrl, EGFR(G719S) (kinases [7]; target EGFR(G719S); 1 μM) [% Ctrl] | % Ctrl, FLT1 (kinases [1]; 1 μM; FLT1) [% Ctrl] | % Ctrl, FLT3(N841I) (kinases [2]; 1 μM; FLT3(N841I)) [% Ctrl] | % Ctrl, ABL1(T315I)-nonphosphorylated (kinases [3]; [12]) [% Ctrl] | % Ctrl, ABL1(T315I)-phosphorylated (kinases [3]; [13]) [% Ctrl] | % Ctrl, ABL1(Y253F)-phosphorylated (kinases [4]; [14]) [% Ctrl] | % Ctrl, ABL1(E255K)-phosphorylated (kinases [5]; [15]) [% Ctrl] | % Ctrl, KIT(A829P) (kinases [6]; 1 μM; KIT(A829P)) [% Ctrl] | % Ctrl, EGFR(G719S) (kinases [7]; 1 μM; EGFR(G719S)) [% Ctrl] | other results |
| --- | --- | --- | --- | --- | --- | --- | --- | --- | --- | --- | --- | --- | --- | --- | --- | --- | --- |
| CN1CCOc2cc3c(cc2Cl)NC(=O)/C3=C\c2[nH]ccc2C(=O)N(C)CC1 [Ex. 164, [16a(17)Z]-19-chloro-2,5,8-trimethyl-5,6,7,8,9,10-hexahydro-12,14-(ethanediylidene)dipyrrolo[3,2-i:3′,4′-l][1,4,7]oxadiazacyclopentadecine-4,16(1H,15H)-dione] | – | – | – | – | – | – | – | – | – | – | – | – | – | – | – | – | % Ctrl, FLT1 (kinases [1]; 1 μM; target FLT1): 13 % Ctrl; % Ctrl, FLT3(N841I) (kinases [2]; 1 μM; target FLT3(N841I)): 0 % Ctrl; % Ctrl, ABL1(T315I)-nonphosphorylated (kinases [3]; 1 μM; target ABL1(T315I)-nonphosphorylated): 0.6 % Ctrl; % Ctrl, ABL1(T315I)-phosphorylated (kinases [3]; 1 μM; target ABL1(T315I)-phosphorylated): 1.4 % Ctrl; % Ctrl, ABL1(Y253F)-phosphorylated (kinases [4]; 1 μM; target ABL1(Y253F)-phosphorylated): 0.1 % Ctrl; % Ctrl, ABL1(E255K)-phosphorylated (kinases [5]; 1 μM; target ABL1(E255K)-phosphorylated): 0.1 % Ctrl; % Ctrl, KIT(A829P) (kinases [6]; 1 μM; target KIT(A829P)): 33 % Ctrl; % Ctrl, EGFR(G719S) (kinases [7]; 1 μM; target EGFR(G719S)): 74 % Ctrl |
| Cc1cc2c([nH]1)/C=C1\C(=O)Nc3ccc(cc31)-c1c(noc1C)CNCCN(C)C2=O [Ex. 139, [3a(4)Z]-6,9,16-trimethyl-10,11,12,13-tetrahydro-2H-1,17-(ethanediylidene)[1,2]oxazolo[4,3-m]dipyrrolo[3,2-f:3′,4′-i][1,4]diazacyclopentadecine-3,8(5H,9H)-dione] | 65 | 12 | 0.1 | 3 | 11 | 4.7 | 74 | 84 | – | – | – | – | – | – | – | – | – |
| Cc1cc2c([nH]1)/C=C1\C(=O)Nc3ccc(cc31)-c1ccnn1CCOCCNC2=O [Ex.39, [19a(20)Z]-2-methyl-6,7,9,10-tetrahydro-1H-15,17-(ethanediylidene)pyrazolo[1,5-d]dipyrrolo[3,4-h:2′,3′-k][1,4,14]oxadiazacyclohexadecine-4,19(5H,18H)-dione] | – | – | – | – | – | – | – | – | 95 | 83 | 95 | 26 | 98 | 72 | 99 | 77 | – |
| Cc1cc2c([nH]1)/C=C1\C(=O)Nc3ccc(cc31)-c1c(C)nn(C)c1COCCN(C)C2=O [Ex. 146, [3a(4)Z]-6,9,14,16-tetramethyl-10,11,13,14-tetrahydro-2H-1,17-(ethanediylidene)pyrazolo[4,3-m]dipyrrolo[3,2-f:3′,4′-i][1,4]oxazacyclopentadecine-3,8(5H,9H)-dione] | 100 | 0 | 64 | 34 | 89 | 57 | 92 | 84 | – | – | – | – | – | – | – | – | – |
| Cc1cc2c([nH]1)/C=C1\C(=O)Nc3ccc(cc31)OCCOCCN(C)C2=O [Ex.91, [16a(17)Z]-2,5-dimethyl-6,7,9,10-tetrahydro-1H-12,14-(ethanediylidene)dipyrrolo[3,2-i:3′,4′-l][1,4,7]dioxazacyclopentadecine-4,16(5H,15H)-dione] | – | – | – | – | – | – | – | – | 83 | 0 | 4.5 | 5.8 | 7.8 | 14 | 32 | 87 | – |
| Cc1cc2c([nH]1)/C=C1\C(=O)Nc3ccc(cc31)-c1c(noc1C)COCCN(C)C2=O [Ex. 128, [3a(4)Z]-6,9,16-trimethyl-1,11-dihydro-2H,13H-1,17-(ethanediylidene)[1,4]oxazolo[4,3-m]dipyrrolo[3,2-f:3′,4′-i][1,4]oxazacyclopentadecine-3,8(5H,9H)-dione] | – | – | – | – | – | – | – | – | 85 | 36 | 20 | 4.2 | 49 | 25 | 86 | 97 | – |
| Cc1cc2c([nH]1)/C=C1\C(=O)Nc3ccc(cc31)-c1cnn(C)c1CN(C)CCN(C)C2=O [Ex. 126, [3a(4)Z]-6,9,12,14-tetramethyl-9,10,11,12,13,14-hexahydro-1,17-(ethanediylidene)pyrazolo[4,3-m]dipyrrolo[3,2-f:3′,4′-i][1,4]diazacyclopentadecine-3,8(2H,5H)-dione] | – | – | – | – | – | – | – | – | 0.65 | 0 | 0 | 0 | 0.25 | 0.55 | 0 | 57 | – |
| Cc1cc2c([nH]1)/C=C1\C(=O)Nc3ccc(nc31)-c1ccccc1OCCCNC2=O [Ex.22, [3a(4)Z]-6-methyl-9,10,11,12-tetrahydro-1,18-(ethanediylidene)dipyrrolo[3,2-g:3′,4′-j][1,5,12]benzoxadiazacyclopentadecine-3,8(2H,5H)-dione] | – | – | – | – | – | – | – | – | 100 | 65 | 97 | 100 | 68 | 67 | 100 | 95 | – |

Further lines, with some results ahead:

| % Ctrl, FLT1 (kinases [1]; target FLT1; 1 μM) [% Ctrl] | % Ctrl, FLT3(N841I) (kinases [2]; target FLT3(N841I); 1 μM) [% Ctrl] | % Ctrl, ABL1(T315I)-nonphosphorylated (kinases [3]; [8]) [% Ctrl] | % Ctrl, ABL1(T315I)-phosphorylated (kinases [3]; [9]) [% Ctrl] | % Ctrl, ABL1(Y253F)-phosphorylated (kinases [4]; [10]) [% Ctrl] | % Ctrl, ABL1(E255K)-phosphorylated (kinases [5]; [11]) [% Ctrl] | % Ctrl, KIT(A829P) (kinases [6]; target KIT(A829P); 1 μM) [% Ctrl] | % Ctrl, EGFR(G719S) (kinases [7]; target EGFR(G719S); 1 μM) [% Ctrl] | % Ctrl, FLT1 (kinases [1]; 1 μM; FLT1) [% Ctrl] | % Ctrl, FLT3(N841I) (kinases [2]; 1 μM; FLT3(N841I)) [% Ctrl] | % Ctrl, ABL1(T315I)-nonphosphorylated (kinases [3]; [12]) [% Ctrl] | % Ctrl, ABL1(T315I)-phosphorylated (kinases [3]; [13]) [% Ctrl] | % Ctrl, ABL1(Y253F)-phosphorylated (kinases [4]; [14]) [% Ctrl] | % Ctrl, ABL1(E255K)-phosphorylated (kinases [5]; [15]) [% Ctrl] | % Ctrl, KIT(A829P) (kinases [6]; 1 μM; KIT(A829P)) [% Ctrl] | % Ctrl, EGFR(G719S) (kinases [7]; 1 μM; EGFR(G719S)) [% Ctrl] | SMILES | other results |
| --- | --- | --- | --- | --- | --- | --- | --- | --- | --- | --- | --- | --- | --- | --- | --- | --- | --- |
| 100 | 19 | 93 | 83 | 100 | 95 | 96 | 8 | – | – | – | – | – | – | – | – | Cc1nn(C)c2c1-c1ccc3c(c1)/C(=C/c1[nH]ccc1C(=O)N(C)CCCO2)C(=O)N3 [Ex. 150, [3a(4)Z]-9,14,16-trimethyl-10,11,13,14-tetrahydro-2H-1,17-(ethanediylidene)pyrazolo[4,3-m]dipyrrolo[3,2-f:3′,4′-i][1,4]oxazacyclopentadecine-3,8(5H,9H)-dione] | – |
| – | – | – | – | – | – | – | – | 85 | 41 | 94 | 72 | 55 | 56 | 75 | 92 | CNC(=O)[C@H]1CN(C)C(=O)c2cc(C)[nH]c2/C=C2\C(=O)Nc3cc(Cl)c(cc32)OCCO1 [Ex. 135, [7R,16a(17)Z]-19-chloro-N,2,5-trimethyl-4,16-dioxo-4,5,6,7,9,10,15,16-octahydro-1H-12,14-(ethanediylidene)dipyrrolo[3,2-i:3′,4′-l][1,4,7]dioxazacyclopentadecine-7-carboxamide] | – |
| 3.5 | 0 | 17 | 25 | 13 | 8.4 | 43 | 45 | – | – | – | – | – | – | – | – | CN1CCSCCOc2cc3c(cc2Cl)NC(=O)/C3=C\c2[nH]ccc2C1=O [Ex. 153] | – |
